Our source for the IC50 values is patent US7557137B2, “Gamma-lactams as beta-secretase inhibitors” (Bristol-Myers Squibb Company, priority 2002, dated 2009).

For this experiment, the target named is T1, BACE enzyme (Homo sapiens, UniProt P56817).
T1 construct: the catalytic domain, appended by a C-terminal poly-histidine tag, is secreted out into the cellular medium; made in house; host or cells: Drosophila melanogaster S2 cells
The experiment is described as follows: BACE enzyme inhibition, fluorescence-quenched peptide substrate MCA-EVNLDAEFK(DNP). In kind it is biochemical. To be noted: 50 mM acetate, pH 4.5, 0.25 mg/ml bovine serum albumin, 2.5% DMSO; read-out: Activity Rating (based on IC50 values). From the text:
There are a number of methods by which inhibitors of the BACE enzyme can be identified experimentally. The enzyme can be obtained from membrane samples from natural tissues or cultured cells or can be expressed recombinantly in a host cell by well known methods of molecular biology. […] The enzymatic activity and/or ligand binding capability of the enzyme can be assessed within these membrane samples, or the enzyme can be purified to varying extents. As an illustrative example, the nucleic acid sequence encoding the pro and catalytic domains of human BACE can be appended on the 5′ end with an untranslated and signal sequence from the gene for acetylcholinesterase, and on the 3′ end with a sequence encoding a poly-histidine tag. This cDNA can then be expressed in Drosophila melanogaster S2 cells in which the signal and pro sequences of the transcribed/translated protein are removed by cellular proteases and the catalytic domain, appended by a C-terminal poly-histidine tag, is secreted out into the cellular medium. The enzyme can then be purified from the culture medium by nickel affinity chromatography by methods well known to those trained in the art [Mallender, W. et al., (2001) “Characterization of recombinant, soluble beta-secretase from an insect cell expression system.” Mol. Pharmacol. 59: 619-626]. Similar strategies for expressing and purifying various forms of BACE in bacterial, mammalian and other cell types would be known to one skilled in the art.
The enzyme thus obtained can be put in contact with a test compound and with an appropriate substrate on which enzyme-mediated peptide bond hydrolysis is known to occur. The ability of the test compound to diminish the rate of substrate hydrolysis can then be quantified as a measure of inhibition potency. Appropriate substrates can be prepared as peptides, proteins, or chemically modified versions of peptides or proteins, that contain an amino acid sequence that is recognized as a substrate by the enzyme. For example, the amino acid sequence immediately proximal to the beta-cleavage site within Swedish mutant APP is known to be recognized as a substrate for BACE. […] Longer peptide and protein substrates can also be designed by extending the amino acid composition on the N-terminal, the C-terminal, or both ends.
In one known application of (SEQ. ID. NO.:1), X is a 7-methoxycoumarin-4-acetyl (MCA) group and Y is a dinitrophenyl (DNP) group [Marcinkeviciene, J. et al., (2001) “Mechanism of inhibition of beta-site amyloid precursor protein-cleaving enzyme (BACE) by a statine-based peptide.” J. Biol. Chem. 276: 23790-23794]. When this peptide is intact, the natural fluorescence of the MCA group is quenched by its proximity to the DNP group. […] The increase in fluorescence intensity that accompanies enzyme-mediated peptide hydrolysis can be measured as a function of time to quantify the velocity of enzyme catalysis. In a typical assay system the BACE enzyme is diluted into a buffer system composed of 50 mM acetate, pH 4.5 containing 0.25 mg/ml bovine serum albumin. To this is added neat dimethyl sulfoxide (DMSO) or a stock solution of test compound dissolved in DMSO so that the final amount of DMSO in all assays is held constant at 2.5% (v:v). The enzymatic reaction is then initiated by addition of a stock solution of the substrate peptide to a known concentration. The fluorescence increase with time after substrate addition is monitored with an appropriate fluorescence detection instrument, such as a microplate reader or spectrofluorometer. The slope of the signal vs. time plot (progress curve) for samples to which only DMSO was added is taken as a measure of the uninhibited velocity and represents 100% enzymatic activity.

T1 sequence (P56817 75-416 limits assumed): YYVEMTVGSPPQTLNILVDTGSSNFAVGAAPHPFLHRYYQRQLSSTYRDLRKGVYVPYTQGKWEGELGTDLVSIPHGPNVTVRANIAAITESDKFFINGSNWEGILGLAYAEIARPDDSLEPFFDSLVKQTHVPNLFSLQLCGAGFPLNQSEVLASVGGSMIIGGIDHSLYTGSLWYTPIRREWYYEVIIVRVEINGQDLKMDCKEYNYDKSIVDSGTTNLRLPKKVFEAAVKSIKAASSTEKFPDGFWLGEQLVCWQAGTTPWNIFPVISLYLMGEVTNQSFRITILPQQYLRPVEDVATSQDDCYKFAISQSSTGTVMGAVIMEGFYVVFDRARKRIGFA

The term IC50 denotes the concentration that gives 50% inhibition. For the molecule `COc1cccc(CNC[C@@H](O)[C@H](Cc2ccccc2)NC(=O)[C@H](CCc2ccccc2)N2CCC(CC(C)C)(NC(C)=O)C2=O)c1` (stereo in doubt) [Example 28, (2S)-2-(3(S)-acetylamino-3-(isobutyl)-2-oxo-pyrrolidin-1-yl)-N-[(1S,2R)-1-benzyl-2-hydroxy-3-(3-methoxy-benzylamino)-propyl]-4-phenyl-butyramide], the IC50 is under 100 nM.

Regarding `CCC(C)[C@@]1(NC(=O)CN)CCN([C@@H](CCc2ccccc2)C(=O)N[C@@H](Cc2ccccc2)[C@H](O)CNCc2cccc(OC)c2)C1=O` (single isomer, unassigned) [Example 22], the IC50 lay in the range of 100 to 1000 nM.
